Data: patent US9340590B2 (priority 2011, dated 2016)
Positions of bridges follow the written chain, without caps; N, C: chain ends. Non-standard residues stand in square brackets, D forms with d. Residues, ends and D or L forms follow the SMILES beside them. Phe(4-CF3) = N[C@@H](Cc1ccc(C(F)(F)F)cc1)C(=O)O; Phe(4-tBu) = CC(C)(C)c1ccc(C[C@H](N)C(=O)O)cc1; Phe(4-F) = N[C@@H](Cc1ccc(F)cc1)C(=O)O; Phe(4-I) = N[C@@H](Cc1ccc(I)cc1)C(=O)O; Phe(4-Me) = Cc1ccc(C[C@H](N)C(=O)O)cc1; NMeF = CN[C@@H](Cc1ccccc1)C(=O)O; NMeL = CN[C@@H](CC(C)C)C(=O)O; NMeV = CN[C@H](C(=O)O)C(C)C

What was measured:
Assay in all cases: cell-based
[1] = biological target: hNav1.3 (Homo sapiens, UniProt Q9NY46); settings: IonWorks Quattro, use-dependent protocol, hNav1.3; read-out: IWQ Use Nav1.3
hNav1.3, sequence (Q9NY46 whole entry, looked up): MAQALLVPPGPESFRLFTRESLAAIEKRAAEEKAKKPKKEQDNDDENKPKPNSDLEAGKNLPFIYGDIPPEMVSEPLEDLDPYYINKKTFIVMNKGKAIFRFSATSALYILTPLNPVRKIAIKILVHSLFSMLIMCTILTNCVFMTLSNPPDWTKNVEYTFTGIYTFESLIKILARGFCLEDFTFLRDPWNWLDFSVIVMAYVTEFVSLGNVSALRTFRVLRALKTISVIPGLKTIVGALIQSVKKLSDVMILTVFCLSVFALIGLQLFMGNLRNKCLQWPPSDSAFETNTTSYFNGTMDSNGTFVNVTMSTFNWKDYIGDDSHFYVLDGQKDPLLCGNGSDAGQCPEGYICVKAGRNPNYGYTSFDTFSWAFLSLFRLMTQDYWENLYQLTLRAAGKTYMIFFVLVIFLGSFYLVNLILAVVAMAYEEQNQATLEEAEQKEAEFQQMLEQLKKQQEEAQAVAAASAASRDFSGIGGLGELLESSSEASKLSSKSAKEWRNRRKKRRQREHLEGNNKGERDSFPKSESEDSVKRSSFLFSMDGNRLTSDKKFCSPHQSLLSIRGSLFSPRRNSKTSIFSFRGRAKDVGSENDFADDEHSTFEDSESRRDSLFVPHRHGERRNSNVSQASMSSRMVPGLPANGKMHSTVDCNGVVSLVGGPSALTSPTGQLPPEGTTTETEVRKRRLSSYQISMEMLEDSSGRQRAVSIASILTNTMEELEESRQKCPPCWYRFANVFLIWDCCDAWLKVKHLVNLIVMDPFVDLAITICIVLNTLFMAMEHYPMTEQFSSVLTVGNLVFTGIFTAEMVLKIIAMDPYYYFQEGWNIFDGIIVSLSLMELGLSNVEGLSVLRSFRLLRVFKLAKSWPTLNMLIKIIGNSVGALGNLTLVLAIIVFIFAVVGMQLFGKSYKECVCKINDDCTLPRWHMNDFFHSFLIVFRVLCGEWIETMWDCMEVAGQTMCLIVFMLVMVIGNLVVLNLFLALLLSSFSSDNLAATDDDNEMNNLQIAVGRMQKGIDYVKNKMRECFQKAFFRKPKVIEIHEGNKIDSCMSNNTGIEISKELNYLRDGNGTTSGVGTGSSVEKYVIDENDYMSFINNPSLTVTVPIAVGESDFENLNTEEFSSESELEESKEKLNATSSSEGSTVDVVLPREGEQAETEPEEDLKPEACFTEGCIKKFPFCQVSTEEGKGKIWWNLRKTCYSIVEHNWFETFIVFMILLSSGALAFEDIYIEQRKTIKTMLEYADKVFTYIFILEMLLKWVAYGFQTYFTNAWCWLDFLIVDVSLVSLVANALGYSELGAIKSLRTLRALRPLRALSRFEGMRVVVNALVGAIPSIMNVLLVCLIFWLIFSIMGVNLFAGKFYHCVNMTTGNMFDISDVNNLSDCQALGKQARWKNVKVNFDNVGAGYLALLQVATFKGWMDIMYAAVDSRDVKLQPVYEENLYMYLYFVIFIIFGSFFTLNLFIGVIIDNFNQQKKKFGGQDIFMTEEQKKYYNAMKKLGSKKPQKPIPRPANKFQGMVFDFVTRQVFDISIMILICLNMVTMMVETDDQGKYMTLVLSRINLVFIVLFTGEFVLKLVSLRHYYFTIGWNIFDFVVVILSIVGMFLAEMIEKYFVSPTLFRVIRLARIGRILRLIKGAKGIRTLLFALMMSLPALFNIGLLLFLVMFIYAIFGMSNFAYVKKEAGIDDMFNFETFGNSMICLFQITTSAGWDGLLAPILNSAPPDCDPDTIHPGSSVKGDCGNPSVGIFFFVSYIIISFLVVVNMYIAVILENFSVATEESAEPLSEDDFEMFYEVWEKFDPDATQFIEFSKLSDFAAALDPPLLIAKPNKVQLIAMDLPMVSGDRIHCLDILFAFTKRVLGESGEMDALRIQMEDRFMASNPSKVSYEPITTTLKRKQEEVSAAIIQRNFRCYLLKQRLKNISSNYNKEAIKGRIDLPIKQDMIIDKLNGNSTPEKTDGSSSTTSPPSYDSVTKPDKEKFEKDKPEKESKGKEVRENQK

[2] = biological target: hNav1.7 (Homo sapiens, UniProt Q15858); type: cell-based; settings: IonWorks Quattro, use-dependent protocol, hNav1.7; read-out: IWQ Use Nav1.7
hNav1.7, sequence (Q15858 whole entry, looked up): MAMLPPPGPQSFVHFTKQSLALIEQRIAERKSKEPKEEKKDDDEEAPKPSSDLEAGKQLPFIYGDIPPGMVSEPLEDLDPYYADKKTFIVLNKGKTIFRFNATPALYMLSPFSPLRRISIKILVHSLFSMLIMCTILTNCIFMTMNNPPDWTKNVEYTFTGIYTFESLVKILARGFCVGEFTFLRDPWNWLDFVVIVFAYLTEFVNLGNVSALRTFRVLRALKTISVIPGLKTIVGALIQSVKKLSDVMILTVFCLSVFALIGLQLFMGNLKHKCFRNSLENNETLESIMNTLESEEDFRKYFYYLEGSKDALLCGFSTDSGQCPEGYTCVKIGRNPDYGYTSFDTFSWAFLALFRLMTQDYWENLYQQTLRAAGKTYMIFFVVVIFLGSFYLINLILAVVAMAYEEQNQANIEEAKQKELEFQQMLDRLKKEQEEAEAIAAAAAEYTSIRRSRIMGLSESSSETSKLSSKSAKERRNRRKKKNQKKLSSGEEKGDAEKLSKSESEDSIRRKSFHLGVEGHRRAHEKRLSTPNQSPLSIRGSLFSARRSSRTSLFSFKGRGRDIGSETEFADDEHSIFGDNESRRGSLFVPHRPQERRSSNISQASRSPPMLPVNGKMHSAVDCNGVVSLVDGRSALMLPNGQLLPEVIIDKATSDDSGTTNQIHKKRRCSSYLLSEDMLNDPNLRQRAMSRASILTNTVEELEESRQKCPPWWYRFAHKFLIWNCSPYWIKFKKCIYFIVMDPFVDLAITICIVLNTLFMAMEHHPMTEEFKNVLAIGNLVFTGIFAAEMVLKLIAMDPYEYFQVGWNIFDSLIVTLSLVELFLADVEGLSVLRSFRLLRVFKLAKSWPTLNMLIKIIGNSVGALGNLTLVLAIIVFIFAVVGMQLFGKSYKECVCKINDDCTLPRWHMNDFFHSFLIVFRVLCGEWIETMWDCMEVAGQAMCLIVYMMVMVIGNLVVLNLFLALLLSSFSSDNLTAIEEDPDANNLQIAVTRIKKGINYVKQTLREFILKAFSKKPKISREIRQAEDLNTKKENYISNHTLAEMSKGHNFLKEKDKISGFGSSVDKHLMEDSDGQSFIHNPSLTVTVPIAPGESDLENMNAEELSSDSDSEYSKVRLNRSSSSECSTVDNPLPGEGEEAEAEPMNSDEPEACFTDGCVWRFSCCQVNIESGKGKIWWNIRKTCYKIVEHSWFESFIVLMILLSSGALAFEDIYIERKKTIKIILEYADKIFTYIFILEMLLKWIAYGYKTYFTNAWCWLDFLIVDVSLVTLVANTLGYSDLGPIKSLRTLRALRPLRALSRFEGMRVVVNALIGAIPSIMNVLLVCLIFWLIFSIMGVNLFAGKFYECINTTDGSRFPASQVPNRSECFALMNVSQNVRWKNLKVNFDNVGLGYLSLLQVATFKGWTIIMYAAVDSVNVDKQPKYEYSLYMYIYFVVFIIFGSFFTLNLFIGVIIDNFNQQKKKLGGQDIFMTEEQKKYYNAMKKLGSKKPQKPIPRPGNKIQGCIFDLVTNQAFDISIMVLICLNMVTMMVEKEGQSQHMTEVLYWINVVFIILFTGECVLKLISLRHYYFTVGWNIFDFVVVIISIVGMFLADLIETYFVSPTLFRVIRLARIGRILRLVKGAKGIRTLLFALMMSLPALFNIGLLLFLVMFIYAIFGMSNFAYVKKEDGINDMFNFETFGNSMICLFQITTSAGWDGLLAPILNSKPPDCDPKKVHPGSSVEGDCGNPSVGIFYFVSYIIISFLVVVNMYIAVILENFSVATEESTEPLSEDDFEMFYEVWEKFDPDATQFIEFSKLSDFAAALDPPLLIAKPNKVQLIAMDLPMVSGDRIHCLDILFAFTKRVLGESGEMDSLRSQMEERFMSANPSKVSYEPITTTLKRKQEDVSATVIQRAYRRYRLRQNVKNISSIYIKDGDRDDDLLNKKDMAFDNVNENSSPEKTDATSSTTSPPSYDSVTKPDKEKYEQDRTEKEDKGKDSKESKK

[3] = biological target: hNav1.5 (Homo sapiens, UniProt Q14524); settings: IonWorks Quattro, use-dependent protocol, hNav1.5; read-out: IWQ Use Nav1.5

What does the source list for CC[C@H](C)[C@@H]1NC(=O)[C@@H]2CSSC[C@@H]3NC(=O)[C@H](C(C)C)NC(=O)[C@H](CC(C)C)NC(=O)[C@H](CC(N)=O)NC(=O)[C@@H]4CCCN4C(=O)[C@H](CCCNC(=N)N)NC(=O)[C@H](CSSC[C@H](NC(=O)[C@@H](N)CC(=O)O)C(=O)N[C@@H](CC(C)C)C(=O)NCC(=O)N[C@@H](Cc4ccc(I)cc4)C(=O)N[C@@H](Cc4ccccc4)C(=O)N[C@@H](CCCNC(=N)N)C(=O)N[C@@H](CCCCN)C(=O)N2)NC(=O)[C@H](CSSC[C@@H](C(=O)N[C@@H](CCCCN)C(=O)N[C@@H](Cc2ccc(O)cc2)C(=O)N[C@H](C(=O)N[C@@H](Cc2ccccc2)C(N)=O)C(C)C)NC(=O)[C@H](Cc2c[nH]c4ccccc24)NC(=O)[C@H](CCCCN)NC(=O)[C@H](Cc2c[nH]cn2)NC(=O)[C@H]([C@@H](C)O)NC(=O)[C@H](CCCNC(=N)N)NC(=O)[C@H](CO)NC3=O)NC(=O)[C@H](CCCCN)NC(=O)[C@H](CC(=O)O)NC(=O)[C@H](CC(N)=O)NC(=O)[C@H](CC(=O)O)NC(=O)[C@@H]2CCCN2C1=O [compound 622] (H-DCLG[Phe(4-I)]FRKCIPDNDKCCRPNLVCSRTHKWCKYVF-NH2; disulfide 2-17, 9-23, 16-30)?
IC50 [1]: 21000 nM; IC50 [2]: 12300 nM; IC50 [3]: 12900 nM

Which IC50 [1] does the source give for CC[C@H](C)[C@@H]1NC(=O)[C@@H]2CSSC[C@@H]3NC(=O)[C@H](C(C)C)NC(=O)[C@H](CC(C)C)NC(=O)[C@H](CC(N)=O)NC(=O)[C@@H]4CCCN4C(=O)[C@H](CCCNC(=N)N)NC(=O)[C@H](CSSC[C@H](NC(=O)[C@@H](N)CC(=O)O)C(=O)N[C@@H](CC(C)C)C(=O)NCC(=O)N[C@@H](Cc4ccc(C(F)(F)F)cc4)C(=O)N[C@@H](Cc4ccccc4)C(=O)N[C@@H](CCCNC(=N)N)C(=O)N[C@@H](CCCCN)C(=O)N2)NC(=O)[C@H](CSSC[C@@H](C(=O)N[C@@H](CCCCN)C(=O)N[C@@H](Cc2ccc(O)cc2)C(=O)N[C@H](C(=O)N[C@@H](Cc2ccccc2)C(N)=O)C(C)C)NC(=O)[C@H](Cc2c[nH]c4ccccc24)NC(=O)[C@H](CCCCN)NC(=O)[C@H](Cc2c[nH]cn2)NC(=O)[C@H]([C@@H](C)O)NC(=O)[C@H](CCCNC(=N)N)NC(=O)[C@H](CO)NC3=O)NC(=O)[C@H](CCCCN)NC(=O)[C@H](CC(=O)O)NC(=O)[C@H](CC(N)=O)NC(=O)[C@H](CC(=O)O)NC(=O)[C@@H]2CCCN2C1=O [compound 623] (H-DCLG[Phe(4-CF3)]FRKCIPDNDKCCRPNLVCSRTHKWCKYVF-NH2; disulfide 2-17, 9-23, 16-30) here?
The IC50 was 13 nM.

And the IC50 [2]?
Its IC50 is 96 nM.

What about the IC50 [3] of the same compound?
The IC50 was 7100 nM.

For CC[C@H](C)[C@@H]1NC(=O)[C@@H]2CSSC[C@@H]3NC(=O)[C@H](C(C)C)NC(=O)[C@H](CC(C)C)NC(=O)[C@H](CC(N)=O)NC(=O)[C@@H]4CCCN4C(=O)[C@H](CCCNC(=N)N)NC(=O)[C@H](CSSC[C@H](NC(=O)[C@@H](N)CC(=O)O)C(=O)N[C@@H](CC(C)C)C(=O)NCC(=O)N[C@@H](Cc4ccc(F)cc4)C(=O)N[C@@H](Cc4ccccc4)C(=O)N[C@@H](CCCNC(=N)N)C(=O)N[C@@H](CCCCN)C(=O)N2)NC(=O)[C@H](CSSC[C@@H](C(=O)N[C@@H](CCCCN)C(=O)N[C@@H](Cc2ccc(O)cc2)C(=O)N[C@H](C(=O)N[C@@H](Cc2ccccc2)C(N)=O)C(C)C)NC(=O)[C@H](Cc2c[nH]c4ccccc24)NC(=O)[C@H](CCCCN)NC(=O)[C@H](Cc2c[nH]cn2)NC(=O)[C@H]([C@@H](C)O)NC(=O)[C@H](CCCNC(=N)N)NC(=O)[C@H](CO)NC3=O)NC(=O)[C@H](CCCCN)NC(=O)[C@H](CC(=O)O)NC(=O)[C@H](CC(N)=O)NC(=O)[C@H](CC(=O)O)NC(=O)[C@@H]2CCCN2C1=O [compound 624] (H-DCLG[Phe(4-F)]FRKCIPDNDKCCRPNLVCSRTHKWCKYVF-NH2; disulfide 2-17, 9-23, 16-30), which IC50 [1] is on record?
Its IC50 is 20 nM.

And the IC50 [2]?
Its IC50 is 60 nM.

And the IC50 [3]?
The IC50 was 11700 nM.

CC[C@H](C)[C@@H]1NC(=O)[C@@H]2CSSC[C@@H]3NC(=O)[C@H](C(C)C)NC(=O)[C@H](CC(C)C)NC(=O)[C@H](CC(N)=O)NC(=O)[C@@H]4CCCN4C(=O)[C@H](CCCNC(=N)N)NC(=O)[C@H](CSSC[C@H](NC(=O)[C@@H](N)CC(=O)O)C(=O)N[C@@H](CC(C)C)C(=O)NCC(=O)N[C@@H](Cc4ccc(C)cc4)C(=O)N[C@@H](Cc4ccccc4)C(=O)N[C@@H](CCCNC(=N)N)C(=O)N[C@@H](CCCCN)C(=O)N2)NC(=O)[C@H](CSSC[C@@H](C(=O)N[C@@H](CCCCN)C(=O)N[C@@H](Cc2ccc(O)cc2)C(=O)N[C@H](C(=O)N[C@@H](Cc2ccccc2)C(N)=O)C(C)C)NC(=O)[C@H](Cc2c[nH]c4ccccc24)NC(=O)[C@H](CCCCN)NC(=O)[C@H](Cc2c[nH]cn2)NC(=O)[C@H]([C@@H](C)O)NC(=O)[C@H](CCCNC(=N)N)NC(=O)[C@H](CO)NC3=O)NC(=O)[C@H](CCCCN)NC(=O)[C@H](CC(=O)O)NC(=O)[C@H](CC(N)=O)NC(=O)[C@H](CC(=O)O)NC(=O)[C@@H]2CCCN2C1=O [compound 625] (H-DCLG[Phe(4-Me)]FRKCIPDNDKCCRPNLVCSRTHKWCKYVF-NH2; disulfide 2-17, 9-23, 16-30) was tested. Which IC50 [1] did it give?
Its IC50 is 51 nM.

And the IC50 [2]?
The IC50 was 63 nM.

And the IC50 [3]?
The IC50 was 6500 nM.

What does the source list for CC[C@H](C)[C@@H]1NC(=O)[C@@H]2CSSC[C@@H]3NC(=O)[C@H](C(C)C)NC(=O)[C@H](CC(C)C)NC(=O)[C@H](CC(N)=O)NC(=O)[C@@H]4CCCN4C(=O)[C@H](CCCNC(=N)N)NC(=O)[C@H](CSSC[C@H](NC(=O)[C@@H](N)CC(=O)O)C(=O)N[C@@H](CC(C)C)C(=O)NCC(=O)N[C@@H](Cc4ccc(C(C)(C)C)cc4)C(=O)N[C@@H](Cc4ccccc4)C(=O)N[C@@H](CCCNC(=N)N)C(=O)N[C@@H](CCCCN)C(=O)N2)NC(=O)[C@H](CSSC[C@@H](C(=O)N[C@@H](CCCCN)C(=O)N[C@@H](Cc2ccc(O)cc2)C(=O)N[C@H](C(=O)N[C@@H](Cc2ccccc2)C(N)=O)C(C)C)NC(=O)[C@H](Cc2c[nH]c4ccccc24)NC(=O)[C@H](CCCCN)NC(=O)[C@H](Cc2c[nH]cn2)NC(=O)[C@H]([C@@H](C)O)NC(=O)[C@H](CCCNC(=N)N)NC(=O)[C@H](CO)NC3=O)NC(=O)[C@H](CCCCN)NC(=O)[C@H](CC(=O)O)NC(=O)[C@H](CC(N)=O)NC(=O)[C@H](CC(=O)O)NC(=O)[C@@H]2CCCN2C1=O [compound 626] (H-DCLG[Phe(4-tBu)]FRKCIPDNDKCCRPNLVCSRTHKWCKYVF-NH2; disulfide 2-17, 9-23, 16-30)?
IC50 [1]: 21 nM; IC50 [2]: 52 nM; IC50 [3]: 4700 nM

With CC[C@H](C)[C@@H]1NC(=O)[C@@H]2CSSC[C@@H]3NC(=O)[C@H](C(C)C)NC(=O)[C@H](CC(C)C)NC(=O)[C@H](CC(N)=O)NC(=O)[C@@H]4CCCN4C(=O)[C@H](CCCNC(=N)N)NC(=O)[C@H](CSSC[C@H](NC(=O)[C@@H](N)CC(=O)O)C(=O)N[C@@H](CC(C)C)C(=O)NCC(=O)N(C)[C@@H](C(C)C)C(=O)N[C@@H](Cc4ccccc4)C(=O)N[C@@H](CCCNC(=N)N)C(=O)N[C@@H](CCCCN)C(=O)N2)NC(=O)[C@H](CSSC[C@@H](C(=O)N[C@@H](CCCCN)C(=O)N[C@@H](Cc2ccc(O)cc2)C(=O)N[C@H](C(=O)N[C@@H](Cc2ccccc2)C(N)=O)C(C)C)NC(=O)[C@H](Cc2c[nH]c4ccccc24)NC(=O)[C@H](CCCCN)NC(=O)[C@H](Cc2c[nH]cn2)NC(=O)[C@H]([C@@H](C)O)NC(=O)[C@H](CCCNC(=N)N)NC(=O)[C@H](CO)NC3=O)NC(=O)[C@H](CCCCN)NC(=O)[C@H](CC(=O)O)NC(=O)[C@H](CC(N)=O)NC(=O)[C@H](CC(=O)O)NC(=O)[C@@H]2CCCN2C1=O [compound 627] (H-DCLG[NMeV]FRKCIPDNDKCCRPNLVCSRTHKWCKYVF-NH2; disulfide 2-17, 9-23, 16-30) as the compound, how does the IC50 [1] read?
Its IC50 is 250 nM.

And the IC50 [2]?
Its IC50 is 190 nM.

And the IC50 [3]?
The IC50 was 6000 nM.

What does the source list for CC[C@H](C)[C@@H]1NC(=O)[C@@H]2CSSC[C@@H]3NC(=O)[C@H](C(C)C)NC(=O)[C@H](CC(C)C)NC(=O)[C@H](CC(N)=O)NC(=O)[C@@H]4CCCN4C(=O)[C@H](CCCNC(=N)N)NC(=O)[C@H](CSSC[C@H](NC(=O)[C@@H](N)CC(=O)O)C(=O)N[C@@H](CC(C)C)C(=O)NCC(=O)N(C)[C@@H](CC(C)C)C(=O)N[C@@H](Cc4ccccc4)C(=O)N[C@@H](CCCNC(=N)N)C(=O)N[C@@H](CCCCN)C(=O)N2)NC(=O)[C@H](CSSC[C@@H](C(=O)N[C@@H](CCCCN)C(=O)N[C@@H](Cc2ccc(O)cc2)C(=O)N[C@H](C(=O)N[C@@H](Cc2ccccc2)C(N)=O)C(C)C)NC(=O)[C@H](Cc2c[nH]c4ccccc24)NC(=O)[C@H](CCCCN)NC(=O)[C@H](Cc2c[nH]cn2)NC(=O)[C@H]([C@@H](C)O)NC(=O)[C@H](CCCNC(=N)N)NC(=O)[C@H](CO)NC3=O)NC(=O)[C@H](CCCCN)NC(=O)[C@H](CC(=O)O)NC(=O)[C@H](CC(N)=O)NC(=O)[C@H](CC(=O)O)NC(=O)[C@@H]2CCCN2C1=O [compound 628] (H-DCLG[NMeL]FRKCIPDNDKCCRPNLVCSRTHKWCKYVF-NH2; disulfide 2-17, 9-23, 16-30)?
IC50 [1]: 91 nM; IC50 [2]: 76 nM; IC50 [3]: 8400 nM

With CC[C@H](C)[C@@H]1NC(=O)[C@@H]2CSSC[C@@H]3NC(=O)[C@H](C(C)C)NC(=O)[C@H](CC(C)C)NC(=O)[C@H](CC(N)=O)NC(=O)[C@@H]4CCCN4C(=O)[C@H](CCCNC(=N)N)NC(=O)[C@H](CSSC[C@H](NC(=O)[C@@H](N)CC(=O)O)C(=O)N[C@@H](CC(C)C)C(=O)NCC(=O)N(C)[C@@H](Cc4ccccc4)C(=O)N[C@@H](Cc4ccccc4)C(=O)N[C@@H](CCCNC(=N)N)C(=O)N[C@@H](CCCCN)C(=O)N2)NC(=O)[C@H](CSSC[C@@H](C(=O)N[C@@H](CCCCN)C(=O)N[C@@H](Cc2ccc(O)cc2)C(=O)N[C@H](C(=O)N[C@@H](Cc2ccccc2)C(N)=O)C(C)C)NC(=O)[C@H](Cc2c[nH]c4ccccc24)NC(=O)[C@H](CCCCN)NC(=O)[C@H](Cc2c[nH]cn2)NC(=O)[C@H]([C@@H](C)O)NC(=O)[C@H](CCCNC(=N)N)NC(=O)[C@H](CO)NC3=O)NC(=O)[C@H](CCCCN)NC(=O)[C@H](CC(=O)O)NC(=O)[C@H](CC(N)=O)NC(=O)[C@H](CC(=O)O)NC(=O)[C@@H]2CCCN2C1=O [compound 629] (H-DCLG[NMeF]FRKCIPDNDKCCRPNLVCSRTHKWCKYVF-NH2; disulfide 2-17, 9-23, 16-30) as the compound, how does the IC50 [1] read?
Its IC50 is 95 nM.

And the IC50 [2]?
The IC50 was 77 nM.

What about the IC50 [3] of the same compound?
Its IC50 is 13600 nM.
